Reference: PubChem BioAssay (NCI)
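Growth conditions: 96-well plates. Treatment: test compound, 48 hours, 5 concentrations. Analysis: linear interpolation between bracketing concentrations; unreached endpoints set to highest concentration. GI50 is the concentration that inhibits growth by half. TGI: total growth inhibition.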

Columns and labels:
Assay in all cases: DTP human tumour cell line panel, 48 h
A549 NSCLC = system: A549 NSCLC
NCI-H226 lung = system: NCI-H226 lung
UACC-257 melanoma = system: UACC-257 melanoma
UO-31 renal = system: UO-31 renal
TK-10 renal = system: TK-10 renal
IGROV1 ovarian = system: IGROV1 ovarian
LOX IMVI melanoma = system: LOX IMVI melanoma
MDA-MB-435 = system: MDA-MB-435
T-47D breast = system: T-47D breast
MDA-MB-231 breast = system: MDA-MB-231 breast

Row | SMILES | TGI (A549 NSCLC) [µM] | TGI (NCI-H226 lung) [µM] | TGI (UACC-257 melanoma) [µM] | TGI (UO-31 renal) [µM] | TGI (TK-10 renal) [µM] | TGI (IGROV1 ovarian) [µM] | TGI (LOX IMVI melanoma) [µM] | GI50 (MDA-MB-435) [µM] | TGI (MDA-MB-435) [µM] | GI50 (A549 NSCLC) [µM] | GI50 (T-47D breast) [µM] | TGI (T-47D breast) [µM] | GI50 (NCI-H226 lung) [µM] | GI50 (UACC-257 melanoma) [µM] | GI50 (UO-31 renal) [µM] | GI50 (TK-10 renal) [µM] | GI50 (IGROV1 ovarian) [µM] | GI50 (LOX IMVI melanoma) [µM] | GI50 (MDA-MB-231 breast) [µM] | TGI (MDA-MB-231 breast) [µM]
1 | OC1CC(O)O[C@H](c2ccccc2)C1 (stereo not given in full) | > 100 | > 100 | > 100 | > 100 | > 100 | > 100 | > 100 |  |  |  |  |  |  |  |  |  |  |  |  | 
2 | CC(=O)Oc1ccc2c(=O)c(C(C)=O)coc2c1 | > 100 | > 100 | > 100 | > 100 | > 100 | > 100 | > 100 |  |  |  |  |  |  |  |  |  |  |  |  | 
3 | CC(C)n1cc(-c2ccc3c(c2)N(C)CC3)c2c(NS(=O)(=O)c3ccn(C)n3)ccnc21 | > 100 | > 100 | > 100 | > 100 | > 100 | > 100 | > 100 | 83 | > 100 | 44 | 29.7 | > 100 | 39.4 | > 100 | 31.7 | > 100 | 59.1 | 47.8 | 76.1 | > 100
4 | Cc1nc2ccc(-n3ncc(C(=O)c4cc5ccccc5[nH]4)c3N)cc2[nH]1 | > 100 | 49.9 | > 100 | 33.2 | > 100 | > 100 | 15.2 | 14.5 | > 100 | 8.46 | 6.74 | 45.2 | 10.5 | 26.6 | 10 | 18.4 | 9.74 | 2.57 | 10.6 | 40.7
5 | CC(C)C[C@H](NC(=O)[C@@H](Cc1ccccc1)n1ccc(Nc2ccccc2)cc1=O)B(O)O | 21.6 | 0.348 | 2.48 | 3.13 | 0.98 | 27.9 | 0.409 | 0.155 | 0.34 | 0.525 | 0.413 | 3.97 | 0.164 | 0.404 | 0.561 | 0.269 | 1.33 | 0.151 | 0.595 | 4.37
6 | O=C(c1ccccc1)n1cc(/C=C/[N+](=O)[O-])c2ccccc21 | > 100 |  | 47.3 | 66.1 | > 100 | 54.7 | 29.8 |  |  |  |  |  |  |  |  |  |  |  |  | 
7 | CCN1C(=O)/C(=c2\sc3n(c2=O)C2C(NN=3)N(CC)C(=O)N2CC)c2ccccc21 (stereo not given) | > 100 | 22.8 | > 100 | > 100 | 24.6 | > 65.5 | 26.6 | 0.199 | 0.449 | 0.795 |  |  | 0.736 | 22.4 | 0.846 | 5.97 | 0.574 | 0.666 | 1.44 | 19.3
8 | CCN(N=O)C1C2(CCCC2)NC(=O)C12CCCC2 (stereo not given) | > 100 | > 100 | > 100 | > 100 | > 100 | > 100 | > 100 |  |  |  |  |  |  |  |  |  |  |  |  | 
9 | Nc1c(C(=O)Nc2cccc(Cl)c2)sc2nc3c(cc12)C(O)CCC3 (stereo not given) | 17.4 | 38.1 |  | 26.8 | 36.8 | 40.7 | 52.1 | 0.121 | 0.408 | 0.465 | 0.463 | 53.2 | 2.68 |  | 1.1 | 10.8 | 0.992 | 0.762 | 1.92 | 49.1
10 | COC(=O)C1C(C(=O)O)C2(c3ccccc3)C(=O)C1(c1ccccc1)C(c1ccc(OC)cc1)=C2c1ccc(OC)cc1 (stereo not given) | 33.5 | 55.6 | 43.9 | 75 | > 100 | 45.8 | > 100 | 28.8 | 60.7 | 15.7 |  |  | 21.9 | 19.1 | 25.8 | 31.8 | 19.9 | 33.2 | 24 | 54.5
11 | CCCCCc1cc(/C=C2/N=C(c3ccc[nH]3)C=C2OC)[nH]c1C | 1.19 | 1.79 | 0.855 | < 0.0193 | 1.29 | 0.195 |  |  | 0.187 |  |  | 0.421 |  |  |  |  |  |  |  | 0.0999
12 | CC(=O)OC(COc1ccc2c(c1)[n+]([O-])nc(N)[n+]2[O-])CN1CCCCC1 (stereo not given) | 40.7 | 54 | 29.1 | > 100 | 96.4 |  |  |  | > 100 |  |  |  |  |  |  |  |  |  |  | 28
13 | C#CN1C(=O)c2c(c(-c3ccccc3)c(-c3ccc(Oc4ccc(-c5c(-c6ccccc6)c6c(c(-c7ccccc7)c5-c5ccccc5)C(=O)N(C#C)C6=O)cc4)cc3)c(-c3ccccc3)c2-c2ccccc2)C1=O | > 100 |  | > 100 | > 100 | > 100 | > 100 | > 100 |  |  |  |  |  |  |  |  |  |  |  |  | 
14 | CCN1CCN(Cc2ccc(NC(=O)Nc3nc(-c4cc(OC)c(OC)c(OC)c4)cs3)cc2C(F)(F)F)CC1 | 4.45 | 3.82 | 3.08 | 3.78 | 4.25 | 4.59 | 7.14 | 1.5 | 2.82 | 1.96 |  |  | 1.68 | 1.69 | 1.36 | 1.95 | 1.93 | 2.18 | 1.6 | 3.46
15 | CC1(C)CC[C@]23CC[C@]4(C)[C@H](CC[C@@H]5[C@@]6(C)CCCNC(C)(C)[C@@H]6CC[C@]54C)[C@H]2[C@H]1OC3 | 3.43 | 3.47 | 3.87 | 3 | 3.61 | 3.48 |  | 1.65 | 3.02 | 1.81 | 1.71 | 3.69 | 1.7 | 1.92 | 1.56 | 1.89 | 1.79 |  | 1.66 | 3.2
16 | COc1ccc(OC(=O)N2C/C(=C\c3ccccc3)C(=O)/C(=C/c3ccccc3)C2)cc1 | 38.9 | 30.3 | 7.71 | 23.6 | 44 | 16.3 | 3.22 |  |  |  |  | 48.1 |  |  |  |  |  |  |  | 7.83
17 | O=C(O)C1=Cc2cccc3cccc(c23)C1=O | > 100 | > 100 | > 100 | > 100 | > 100 | > 100 | > 100 |  |  |  |  |  |  |  |  |  |  |  |  | 
